{"source": "patent US10166229B2", "about": "“Compounds and methods for the treatment of cancer” (The Board of Trustees of the University of Illinois, priority 2005, dated 2019)", "key": {"[1]": {"test_system": "NCI-H226 lung cancer cell line", "test": "Cell death IC50 (MTS) in NCI-H226", "format": "cell-based", "conditions": "Homo sapiens, NCI-H226, 72 h, read-out: IC50 for cell death induction, NCI-H226"}, "[2]": {"test_system": "HL-60 cells", "test": "Annexin V staining (phosphatidylserine exposure)", "format": "cell-based, human", "experimental": "Cells were harvested by centrifugation and washed twice in PBS. The cells were then washed in AnnexinV binding buffer (10 mM HEPES, 140 mM NaCl, 2.5 mM CaCl2, pH 7.4) and resuspended in 100 μL of Annexin V binding buffer. 5 μL of annexin V, Alexa Fluor 488 conjugate was added and the tubes were incubated at room temperature for 15 minutes protected from light. 400 μL of Annexin V binding buffer was then added, followed by the addition of 1 μL of a 1 mg/mL solution of propidium iodide. The fluorescent intensity of each cell was determined by flow cytometry at 525 nm (green channel) and 675 nm (red channel). At least 50,000 cells were analyzed in each experiment."}, "[3]": {"test_system": "primary colon cancer cells", "test": "Cell death in primary cancerous cells from resected colon tumors", "format": "cell-based, human"}, "[4]": {"test_system": "NCI-H226 (lung cancer) xenograft tumors", "test": "NCI-H226 subcutaneous xenograft, oral gavage", "format": "in vivo, mice", "conditions": "oral gavage once a day for 21 days, 50 or 100 mg/kg"}, "[5]": {"test_system": "mitochondrial membrane depolarization in HL-60 cells", "test": "Mitochondrial membrane potential (JC-9) in HL-60", "format": "cell-based, human", "experimental": "The cells were incubated for various times, and the cells then were harvested by centrifugation. The cells were washed in PBS and resuspended in 1 mL of PBS. 10 μg of the JC-9 dye was added and the cells were incubated at room temperature for 10 minutes protected from light. The cells were then washed two times with PBS and brought up in 500 μL PBS. The fluorescent intensity of each cell was determined by flow cytometry at 525 nm (green channel) and 675 nm (red channel). 50,000 cells were analyzed in each experiment. The shift in the red channel was then used to determine the amount of mitochondrial membrane depolarization."}, "[6]": {"molecular_target": "procaspase-3 (Homo sapiens (Human), UniProt P42574)", "sequence (P42574 whole entry)": "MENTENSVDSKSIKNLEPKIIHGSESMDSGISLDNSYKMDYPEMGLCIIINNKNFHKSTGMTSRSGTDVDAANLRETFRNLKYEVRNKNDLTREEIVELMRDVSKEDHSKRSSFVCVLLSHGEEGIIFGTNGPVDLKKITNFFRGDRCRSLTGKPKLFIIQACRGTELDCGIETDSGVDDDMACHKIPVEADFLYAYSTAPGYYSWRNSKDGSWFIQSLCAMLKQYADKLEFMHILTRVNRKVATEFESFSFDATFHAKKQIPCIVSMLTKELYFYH", "test": "Effect of pH on PAC-1 activation of procaspase-3", "format": "biochemical", "conditions": "low pH values", "experimental": "The plate was then incubated for 12 hours at 37° C. 10 μL of a 2 mM solution of Ac-DEVD-pNA (SEQ ID NO: 28) in caspase assay buffer was then added to each well. […] The slope of the linear portion for each well was determined and the fold increase in activation for each pH value was calculated."}, "[7]": {"molecular_target": "procaspase-3 mutant DAD (Homo sapiens, UniProt P42574, D180A)", "sequence (P42574 29-175 limits assumed)": "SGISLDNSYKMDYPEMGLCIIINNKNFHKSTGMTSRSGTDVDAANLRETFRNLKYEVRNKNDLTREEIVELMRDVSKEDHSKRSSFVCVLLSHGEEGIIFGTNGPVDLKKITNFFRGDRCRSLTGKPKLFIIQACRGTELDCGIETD", "sequence (P42574 176-277 D180A limits assumed)": "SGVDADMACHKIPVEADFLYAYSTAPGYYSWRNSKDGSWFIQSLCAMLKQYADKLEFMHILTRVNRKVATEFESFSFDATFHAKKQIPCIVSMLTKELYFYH", "test": "Activation of safety catch mutant procaspase-3 (DAD)", "format": "biochemical", "conditions": "Asp-Ala-Asp mutant", "from_the_text": "Safety catch mutations. The DDD procaspase-3 safety catch (SEQ ID NO:1; SEQ ID NO:2; SEQ ID NO:9) was mutated to ADD (SEQ ID NO:3, SEQ ID NO:4, SEQ ID NO:10), DAD (SEQ ID NO:5, SEQ ID NO:6, SEQ ID NO:11) and DDA (SEQ ID NO:7, SEQ ID NO:8, SEQ ID NO:12) using the quickchange strategy with the following primers, gacagacagtggtgttgCGgatgacatggcgtgtcataaaatacc (SEQ ID NO:13), gacagacagtggtgttgatgCtgacatggcgtgtcataaaatacc (SEQ ID NO:14) and gacagacagtggtgttgatgatgCcatggcgtgtcataaaatacc (SEQ ID NO:15) respectively. See also FIG. 9 and FIG. 10. Mutated bases are underlined and capitalized. All mutant plasmids were sequenced to ensure proper sequence throughout the gene. All mutant plasm ids were expressed exactly as wild-type procaspase-3 as described above. […] The plate was then incubated for 12 hours at 37° C. 10 μL of a 2 mM solution of Ac-DEVD-pNA (SEQ ID NO: 28) in caspase assay buffer was then added to each well. The plate was read every 2 minutes at 405 nm for 2 hours in a Spectra Max Plus 384 well plate reader. The slope of the linear portion for each well was determined and the fold increase in activity for each mutant was calculated."}, "[8]": {"test": "Plasma PAC-1 content after pellet implantation", "format": "in vivo, mice", "conditions": "female, athymic BALB/c (nude), mouse, other: implantation of a pellet of PAC-1 and cholesterol, 5 mg pellet, after the 54 day experiment", "experimental": "PAC-1 was evaluated in a mouse xenograft model using a slow release mode of drug delivery. In this model, subcutaneous tumors were formed in ovariectomized female athymic BALB/c (nude) mice using the ACHN (renal cancer) cell line. […] Tumor sizes were monitored for about 8 weeks. […] After the mice were sacrificed, plasma samples were taken from each mouse, and the PAC-1 content of each was analyzed."}, "[9]": {"test_system": "caspase-3 like activity in HL-60 cells", "test": "Caspase-3 like activity in HL-60 cells", "format": "cell-based, human", "conditions": "HL-60, 100 μM PAC-1", "experimental": "In vivo determination of caspase-3 like activity. The amount of caspase-3 like protease activity was determined by the amount of Ac-DEVD-pNA (N-acetyl-ASP-Glu-Val-Asp-p-nitroanilide) (SEQ ID NO: 28) cleaved per minute by cell lysates. […] 50 μL of HL-60 cells at a concentration of 5×10^6 cells/mL were added to the plate and incubated for various times. After the incubation period, the plate was spun at 1000×g for 5 minutes to pellet the cells. The cells were then washed with 100 μL of PBS and resuspended in 150 μL of ice cold Caspase Assay Buffer. Each well was then sonicated to lyse the cells. 90 μL of cell lysate was transferred from each well into a new plate. Ac-DEVD-pNA (SEQ ID NO: 28) was added into each well to give a final concentration of 200 μM. […] The slope of the linear portion for each well was determined and the amount of Ac-DEVD-pNA (SEQ ID NO: 28) cleaved per minute was calculated."}, "[10]": {"molecular_target": "PARP-1 (Homo sapiens (Human), UniProt P09874)", "sequence (P09874 whole entry, species assumed)": "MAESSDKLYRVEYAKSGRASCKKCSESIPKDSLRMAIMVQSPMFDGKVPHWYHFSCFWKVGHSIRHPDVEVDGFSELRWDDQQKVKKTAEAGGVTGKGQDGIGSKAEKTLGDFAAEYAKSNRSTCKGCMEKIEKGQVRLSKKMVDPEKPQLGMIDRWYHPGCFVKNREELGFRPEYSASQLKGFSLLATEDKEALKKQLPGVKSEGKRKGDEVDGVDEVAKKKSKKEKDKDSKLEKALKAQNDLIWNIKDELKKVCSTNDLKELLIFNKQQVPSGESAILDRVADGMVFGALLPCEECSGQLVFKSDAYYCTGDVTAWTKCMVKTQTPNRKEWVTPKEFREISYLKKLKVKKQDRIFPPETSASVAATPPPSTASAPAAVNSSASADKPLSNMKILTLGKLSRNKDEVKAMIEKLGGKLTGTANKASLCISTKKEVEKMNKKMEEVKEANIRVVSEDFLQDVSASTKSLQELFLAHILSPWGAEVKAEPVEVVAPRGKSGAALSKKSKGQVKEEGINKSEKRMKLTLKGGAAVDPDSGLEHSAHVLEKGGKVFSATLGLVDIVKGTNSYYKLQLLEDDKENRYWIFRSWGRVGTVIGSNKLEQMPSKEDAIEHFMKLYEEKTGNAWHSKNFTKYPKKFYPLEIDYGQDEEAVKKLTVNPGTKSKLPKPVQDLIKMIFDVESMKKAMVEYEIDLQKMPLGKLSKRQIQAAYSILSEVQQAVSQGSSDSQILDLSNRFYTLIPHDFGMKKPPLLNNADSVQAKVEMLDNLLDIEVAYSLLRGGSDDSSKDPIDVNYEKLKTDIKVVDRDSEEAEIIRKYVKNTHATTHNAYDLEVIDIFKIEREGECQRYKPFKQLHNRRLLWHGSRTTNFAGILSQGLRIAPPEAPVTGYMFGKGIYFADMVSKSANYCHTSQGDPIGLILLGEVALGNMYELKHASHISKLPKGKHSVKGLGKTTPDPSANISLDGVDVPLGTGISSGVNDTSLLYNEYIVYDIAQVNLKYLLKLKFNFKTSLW", "test": "Control experiment: direct inhibition of PARP-1 enzymatic activity", "format": "biochemical", "conditions": "control experiments"}, "[11]": {"test_system": "HL-60 cells", "test": "Cell death inhibition by z-vad-fmk", "format": "cell-based, human", "experimental": "Cell death inhibition by z-vad-fmk. 100 μL HL-60 cells at a concentration of 5×10^5 cells/mL were added to the wells of a 96-well plate. The cells were then incubated for 1 hour in the presence or absence of 100 μM z-vad-fmk, a cell-permeable pan caspase inhibitor. […] The plates were incubated at 37° C. for approximately 45 minutes until the colored product formed."}, "[12]": {"test_system": "ACHN (renal cancer) subcutaneous tumors", "test": "ACHN xenograft, PAC-1/cholesterol pellet", "format": "in vivo, mice"}, "[13]": {"test_system": "NCI-H226 (lung cancer) xenograft", "test": "NCI-H226 xenograft, intraperitoneal PAC-1", "format": "in vivo, mice", "conditions": "i.p. 10 mg/kg", "experimental": "A xenograft model was employed using NCI-H226 (lung cancer) cells. […] A comparison of efficacy was performed with gefitinib (Iressa™; AstraZeneca, Wilmington, Del.) at 40 mg/kg using 5 mice per group."}}, "note": "pEC50, pIC50: −log10 of the molar value. “Also recorded” adds a separate entry of the source."}
{"smiles": "C=CCc1cccc(/C=N/NC(=O)CN2CCN(Cc3ccccc3)CC2)c1O", "note": "[PAC-1]", "values": [{"measurement": "pIC50", "setting": "[1]", "result": 6.46}, {"measurement": "effectiveness in Annexin-V assay", "setting": "[2]; 5 μM", "result": "effective"}, {"measurement": "phosphatidylserine exposure on the cell membrane", "setting": "[2]; HL-60, 20 h, 100 μM", "result": "considerable phosphatidylserine exposure"}, {"measurement": "sensitivity of cells in cancerous tissue in comparison with normal tissue", "setting": "[3]; FIG. 6B, Patient 3", "result": "greater than 80 fold"}, {"measurement": "pIC50", "setting": "[3]; Homo sapiens, read-out: IC50 in cancer cells from patient 17, patient 17", "result": 8.15}, {"measurement": "sensitivity of cancer cells versus cells from adjacent normal tissue", "setting": "[3]; patient 17", "result": "over 700 fold"}, {"measurement": "tumor growth, NCI-H226 xenograft", "setting": "[4]", "result": "significantly retards tumor growth in a dose-dependent manner"}, {"measurement": "mitochondrial membrane depolarization", "setting": "[5]", "result": "causes mitochondrial membrane depolarization"}, {"measurement": "effect of PAC-1 on procaspase-3 at low pH", "setting": "[6]", "result": "abolished"}, {"measurement": "pEC50", "setting": "[7]", "result": 5.56}, {"measurement": "concentration at 54 day", "setting": "[8]", "result": 5, "unit": "nM"}, {"measurement": "time to 50% activation of caspase-3-like activity", "setting": "[9]", "result": "over 2 hours"}, {"measurement": "direct inhibition of enzymatic activity of PARP-1", "setting": "[10]", "result": "does not directly inhibit"}, {"measurement": "toxicity in the presence of caspase inhibitor z-VAD-fmk", "setting": "[11]", "result": "abolished"}, {"measurement": "food consumption", "setting": "[12]; last week of the experiment, 0, 1, 5 mg pellets", "result": "no difference in food consumption"}, {"measurement": "tumor growth, ACHN xenograft", "setting": "[12]; pellet containing 5 mg of PAC-1, about 8 weeks", "result": "significantly retarded; also recorded: reduces the growth of tumors"}, {"measurement": "growth in tumor volume, NCI-H226 xenograft", "setting": "[13]", "result": "associated with reducing growth in tumor volume"}]}
